Experimental data from article PMC5121526, “Chemerin Elicits Potent Constrictor Actions via Chemokine‐Like Receptor 1 (CMKLR1), not G‐Protein‐Coupled Receptor 1 (GPR1), in Human and Rat Vasculature” (Journal of the American Heart Association: Cardiovascular …, 2016).
Ends that are not written are not given here.

What was measured:
Assay type in all cases: cell-based
human CMKLR1 [1] = target: T1, human CMKLR1 (Homo sapiens, UniProt Q99788); assay: β‐Arrestin recruitment at CMKLR1
T1 construct: host or cells: CHO-K1
T1 sequence (Q99788 1-373): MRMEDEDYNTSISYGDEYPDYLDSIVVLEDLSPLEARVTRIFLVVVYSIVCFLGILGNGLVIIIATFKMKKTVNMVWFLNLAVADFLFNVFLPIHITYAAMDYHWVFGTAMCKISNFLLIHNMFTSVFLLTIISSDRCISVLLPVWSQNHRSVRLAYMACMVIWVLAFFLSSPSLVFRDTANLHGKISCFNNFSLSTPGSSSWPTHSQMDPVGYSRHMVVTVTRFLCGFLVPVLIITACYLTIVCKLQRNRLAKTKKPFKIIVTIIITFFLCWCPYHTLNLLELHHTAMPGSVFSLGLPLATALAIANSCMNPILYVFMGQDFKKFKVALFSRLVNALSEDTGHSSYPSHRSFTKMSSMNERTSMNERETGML
Description: (§1) β‐Arrestin recruitment (CMKLR1 and GPR1) and cAMP assays (CMKLR1; DiscoverX, Fremont, CA) were carried out with CHO‐K1 cells expressing either human CMKLR1 or GPR1, according to the manufacturer's instructions. […] Data were subsequently normalized to the maximum response to C13 used as the reference agonists in each assay.

human CMKLR1 [2] = target: T1, human CMKLR1; assay: cAMP inhibition at CMKLR1; settings: inhibition of forskolin‐evoked cAMP accumulation, CHO‐K1 cells, n: Chemerin 3, C9 4, C13 3, mean±SEM
Description: as §1

human GPR1 = target: T2, human GPR1 (Homo sapiens, UniProt P46091); assay: β‐Arrestin recruitment at GPR1
T2 construct: host or cells: CHO-K1
T2 sequence (P46091 1-355): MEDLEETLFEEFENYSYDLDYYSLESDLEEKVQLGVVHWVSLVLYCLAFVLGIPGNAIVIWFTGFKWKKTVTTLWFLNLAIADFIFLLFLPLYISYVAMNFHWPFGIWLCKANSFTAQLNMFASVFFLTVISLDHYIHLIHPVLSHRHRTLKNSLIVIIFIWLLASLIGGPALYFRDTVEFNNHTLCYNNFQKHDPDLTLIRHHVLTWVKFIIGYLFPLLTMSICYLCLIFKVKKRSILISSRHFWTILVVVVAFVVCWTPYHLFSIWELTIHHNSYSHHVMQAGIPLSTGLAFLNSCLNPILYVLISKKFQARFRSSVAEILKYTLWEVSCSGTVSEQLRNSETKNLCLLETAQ
Description: as §1

Substance | pD2 (human CMKLR1 [1]; β‐arrestin recruitment, CHO‐K1 cells, CMKLR1, n: Chemerin 3, C9 3, C13 6, mean±SEM) | pD2 (human CMKLR1 [2]) | pD2 (human GPR1; β‐arrestin recruitment, CHO‐K1 cells, GPR1, n: Chemerin 3, C9 7, C13 9, mean±SEM) | EC50 (human CMKLR1 [1]) [nM] | Emax (human CMKLR1 [1]) [%] | EC50 (human CMKLR1 [2]; read-out: pD2 (converted)) [nM] | EC50 (human GPR1) [nM] | Emax (human GPR1) [%]
Chemerin: Human recombinant chemerin(21–157) purchased from R&D Systems | 9.37±0.05 | 8.45±0.10 | 9.05±0.09 |  |  |  |  | 
PHSFYFPGQFAFS [C13] |  |  |  | 70.8 | 94 ± 2 | 0.759 | 2.24 | 97 ± 3
